# In patent US20250000858A1, “FGFR TYROSINE KINASE INHIBITORS FOR THE TREATMENT OF ADVANCED SOLID TUMORS” (JANSSEN PHARMACEUTICA NV, priority 2021, published 2025):
# Where two headings read alike, the source gives them in different places.
# [1] = 144 treated BPC subjects (safety analysis set)
# [2] = Broad Panel Cohort, 178 treated subjects, % of subjects, AE outcome of Fatal
# Procedure: The following results include data from an efficacy analysis set and a safety analysis set. […] All subjects in the efficacy analysis set were treated and followed until the clinical cut-off date in accordance with the protocol, in order to provide adequate follow-up of at least 5 months of objective evidence of clinical activity on all subjects.
compound,measurement,setting,value
"COc1cc(OC)cc(N(CCNC(C)C)c2ccc3ncc(-c4cnn(C)c4)nc3c2)c1 [erdafitinib, N-(3,5-dimethoxy-phenyl)-N′-(1-methylethyl)-N-[3-(1-methyl-1H-pyrazol-4-yl)quinoxalin-6-yl]ethane-1,2-diamine]",TEAEs leading to death,"13 patients, BPC n=178, IA3",7.3%
same,Drug-related serious TEAEs,[1],6.3%
same,diarrhea (TEAE),[1],54.2%
same,drug related TEAEs leading to death,[1],no drug related TEAEs leading to death
same,drug-related TEAEs leading to discontinuation,[1],3.5%
same,hyperphosphatemia (TEAE),[1],65.3%
same,stomatitis (TEAE),[1],49.3%
same,TEAEs leading to death,[2],13 (7.3%)
same,TEAEs leading to death: Drug-related,[2],1 (0.6%)
